Holding throughout (assay): DTP human tumour cell line panel, 48 h
Assay [1] concerns HS 578T breast.
The subject of assay [2] is T-47D breast.
Assay [3] deals with HCT-15 colon.
In assay [4] the test system is HCT-116 colon.
Assay [5] relates to SNB-75 CNS.
The test system of assay [6] is SF-539 CNS.
Assay [7] relates to M14 melanoma.
In assay [8] the test system is EKVX NSCLC.
Assay [9] has as its system MCF7 breast.
Assay [10] has as its system HL-60(TB) leukemia.

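In this assay, cells in 96-well plates receive the compound at five concentrations for 48 hours. Endpoints are linearly interpolated between the surrounding concentrations. At the GI50, growth is halved. TGI denotes the concentration required for complete inhibition of growth.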

`O=C1CSC(=S)N1c1ccc(F)cc1F`: the TGI in assay [1], in [2], in [3], in assay [4], in [5] and in assay [6] was over 100 µM in each case. Further, the TGI in assay [7] is over 100 µM; in assay [8], over 100 µM; in [9], 51.5 µM.
On to `O=C(N/N=C/c1coc2ccc(Cl)cc2c1=O)c1ccncc1`, for which the GI50 in assay [1] is 32.6 µM; in assay [2], over 100 µM; in assay [3] it was 44.4 µM; in assay [4], 40.3 µM; in assay [5], 49.4 µM; in assay [6], 75.9 µM. In addition, the values for the GI50 in assay [7], in assay [8] and in [9] were 37.5 µM, 44.6 µM and 47.2 µM, respectively. The TGI in [1], in assay [2], in [3], in [4], in [5] and in [6] was over 100 µM each time. Further, the TGI in [7], in [8] and in assay [9] was over 100 µM throughout.
Take `COc1ccc2c(CC(=O)O)cc(=O)oc2c1`: the TGI in [1], in assay [2], in assay [3], in assay [4], in assay [6] and in assay [7] was over 100 µM throughout. For the same compound, the TGI in [8], in assay [9] and in assay [10] was over 100 µM in each case.
Regarding `CN(CCCCCl)P(=O)(OCc1ccc([N+](=O)[O-])o1)C(F)(F)c1ccc(CC(=O)N[C@@H](CC(=O)O)C(=O)N[C@@H](Cc2ccc(C(F)(F)P(=O)(OCc3ccc([N+](=O)[O-])o3)N(C)CCCCCl)cc2)C(N)=O)cc1` (stereo partly drawn), the GI50 in [1] was 37.6 µM; in assay [2] it was 39.1 µM; in assay [3] it was over 100 µM; in assay [5], 34.5 µM; in assay [6], 31 µM; in assay [8], 67.7 µM. Besides, the figures for the GI50 in assay [9] and in assay [10] were 32.8 µM and 28 µM, respectively. Moreover, the TGI in [1] was over 100 µM; in [2], over 100 µM; in assay [3] it was over 100 µM; in [5], 91.9 µM; in [6], 99.8 µM; in [8], over 100 µM. The TGI is over 100 µM in assay [9] and 64.5 µM in assay [10].
With `O=C(Nc1ccc(Cl)c(Cl)c1)C(=O)C(C1OC(=O)c2ccccc21)[N+](=O)[O-]` (stereo not drawn), the TGI in assay [1], in assay [2], in assay [3], in assay [4], in assay [5] and in [6] was over 100 µM in each case. Moreover, the total growth inhibition concentration (TGI) in assay [7], in assay [8] and in [9] was over 100 µM in each case.
On to `CC(C)(C)C(=O)OCOP(=O)(OCOC(=O)C(C)(C)C)C1CCCN(OC(=O)c2ccccc2)C1=O` (stereo not drawn), for which the GI50 in assay [1] was 0.71 µM; in [2], 1.38 µM; in assay [3], 1.28 µM; in [4] it was 0.558 µM; in [5] it was 5.1 µM; in [6], 3.72 µM. Moreover, the values for the GI50 in [7], in assay [8] and in assay [9] were 2.3 µM, 0.999 µM and 0.528 µM, respectively. The TGI in assay [1] is 38.1 µM; in [2], 16.7 µM; in assay [3], 39.9 µM; in assay [4] it was 6.46 µM; in assay [5] it was 93.1 µM; in assay [6] it was 18.9 µM. Besides, the results for the TGI in [7], in [8] and in assay [9] were 16.5 µM, 50.7 µM and 10.1 µM, respectively.
With `COc1ccc(-c2cn(-c3ccc(Cl)cc3)c(=S)[nH]2)cc1OC`, the GI50 in assay [1] was 19.2 µM; in assay [2], 6.09 µM; in assay [3] it was 5.22 µM; in [4] it was 3.96 µM; in assay [5], 16.4 µM; in [6], 29.9 µM. The GI50 is 13.2 µM in assay [8], 4.77 µM in [9] and 3.34 µM in assay [10]. In addition, the concentration for total growth inhibition (TGI) in [1] is over 100 µM; in [2], over 100 µM; in assay [3], over 100 µM; in [4] it was over 100 µM; in assay [5] it was 60.3 µM; in assay [6] it was over 100 µM. Further, the concentration for total growth inhibition (TGI) is over 100 µM in assay [8], over 100 µM in assay [9] and 9.32 µM in assay [10].
`O=C(CCCCCCC(=O)N/N=C/c1ccc(N(c2ccccc2)c2ccccc2)cc1)NO`: the GI50 in assay [1] was 6.14 µM; in assay [2] it was 0.309 µM; in assay [3], 2.69 µM; in [4] it was 0.349 µM; in assay [5], 2.04 µM; in assay [6], 2.17 µM. For the same compound, the GI50 is 3.82 µM in [8], 0.601 µM in [9] and 2.64 µM in [10]. Further, the concentration for total growth inhibition (TGI) in [1] was 31.2 µM; in assay [2], 2.41 µM; in assay [3], 12 µM; in [4], 1.97 µM; in assay [5], 14.2 µM; in [6], 4.95 µM. Besides, the results for the TGI in assay [8], in [9] and in assay [10] were 15.2 µM, 11.3 µM and 7.57 µM, respectively.
Turning to `COc1ccc(S(=O)(=O)N2CCN(C(=O)OCc3ccccc3)CC2C(=O)NO)cc1` (stereo not drawn), the GI50 in [1] was over 25 µM; in assay [2] it was 12.1 µM; in [3], over 25 µM; in [4] it was over 25 µM; in [5], over 25 µM; in [6] it was over 25 µM. Besides, the GI50 in assay [7] is over 25 µM; in assay [8], 6.18 µM; in [9], 13 µM. Further, the concentration for total growth inhibition (TGI) in assay [1], in assay [2], in assay [3], in [4], in assay [5] and in assay [6] was over 25 µM each time. Further, the TGI in assay [7], in [8] and in assay [9] was over 25 µM throughout.

(Values after PubChem BioAssay (NCI).)
